The values that follow come from ChEMBL document CHEMBL3763041, “Design and synthesis of new imidazo[1,2-a]pyridine and imidazo[1,2-a]pyrazine derivatives with antiproliferative activity against melanoma cells” (Eur J Med Chem, 2016).

The nature of this assay: Antiproliferative activity against human A375P cells expressing BRAF V600E mutant after 72 hrs by CellTiter-Glo assay. It counts as functional, cell-based.
On to `Cc1cc(C)cc(C(=O)Nc2cccc(-c3cnc4c(NC(=O)c5ccccc5)cccn34)c2)c1`, for which the IC50 is above 30000 nM.

`Cc1ccc(C(=O)Nc2cccc(-c3cnc4c(N)nccn34)c2)cc1Cl` gave an IC50 of 2270 nM.

`Nc1nccn2c(-c3cccc(NC(=O)c4cc(Cl)c(F)c(Cl)c4)c3)cnc12` displayed an IC50 of 4090 nM.

In turn, `Nc1nccn2c(-c3cccc(NC(=O)c4ccc(Cl)c(C(F)(F)F)c4)c3)cnc12` showed a half-maximal inhibitory concentration (IC50) of 1410 nM.

With `COc1cc(C(=O)Nc2cccc(-c3cnc4c(N)nccn34)c2)cc(OC)c1OC`, the IC50 was determined as 1540 nM.

In the case of `Nc1nccn2c(-c3cccc(NC(=O)c4ccc(C(F)(F)F)cc4)c3)cnc12`, the IC50 was 7040 nM.

`O=C(Nc1cccc(-c2cnc3c(NC(=O)c4ccccc4)nccn23)c1)c1ccc(Cl)c(C(F)(F)F)c1`: the IC50 was 1820 nM.

Take `Cc1ccc(C(=O)Nc2cccc(-c3cnc4c(NC(=O)c5ccccc5)cccn34)c2)cc1Cl`: the IC50 turned out to be 7070 nM.

In the case of `O=C(Nc1cccc(Cl)c1)Nc1cccc(-c2cnc3c(NC(=O)c4ccccc4)cccn23)c1`, the IC50 worked out at 7360 nM.

In the case of `O=C(Nc1cccc(-c2cnc3c(NC(=O)c4cc(C(F)(F)F)cc(C(F)(F)F)c4)nccn23)c1)c1ccc(Cl)c(C(F)(F)F)c1`, half-maximal inhibition (IC50) was put at 550 nM.

The molecule `O=C(Nc1cccc(-c2cnc3c(NC(=O)c4cccc(OC(F)(F)F)c4)nccn23)c1)c1ccc(F)c(Cl)c1` displayed an IC50 of 1500 nM.

Molecule `O=C(Nc1cccc(-c2cnc3c(NC(=O)c4ccccc4)cccn23)c1)c1ccc(C(F)(F)F)cc1` registered an IC50 of 1700 nM.

The molecule `O=C(Nc1cccc(-c2cnc3c(NC(=O)c4ccccc4)cccn23)c1)c1ccc(Br)cc1` had an IC50 of 6350 nM.

In turn, `O=C(Nc1cccc(-c2cnc3c(NC(=O)c4ccc(Cl)c(C(F)(F)F)c4)nccn23)c1)c1ccc(F)c(Cl)c1` had an IC50 of 1080 nM.

`O=C(Nc1cccc(-c2cnc3c(NC(=O)c4cc(F)cc(F)c4)nccn23)c1)c1ccc(Cl)c(C(F)(F)F)c1` gave an IC50 of 1620 nM.

`O=C(Nc1cccc(-c2cnc3c(NC(=O)c4ccc(Cl)c(Cl)c4)nccn23)c1)c1ccc(Cl)c(C(F)(F)F)c1`: it took 660 nM to reach half-maximal inhibition (IC50).

With `O=C(Nc1cccc(-c2cnc3c(NC(=O)c4ccccc4)cccn23)c1)c1ccc(OC(F)(F)F)cc1`, the IC50 came to 21300 nM.

On to `Nc1nccn2c(-c3cccc(NC(=O)c4ccc(F)cc4F)c3)cnc12`, for which inhibition was half-maximal at 7260 nM (IC50).

As for `Cc1cc(C)cc(C(=O)Nc2cccc(-c3cnc4c(N)nccn34)c2)c1`, the IC50 came to 820 nM.

`O=C(Nc1cccc(-c2cnc3c(NC(=O)c4ccc(F)c(C(F)(F)F)c4)nccn23)c1)c1ccc(Cl)c(C(F)(F)F)c1`: the IC50 was 460 nM.

In turn, `O=C(Nc1cccc(-c2cnc3c(NC(=O)c4ccccc4)cccn23)c1)c1ccc(F)c(C(F)(F)F)c1` returned an IC50 above 30000 nM.

As to `O=C(Nc1cccn2c(-c3cccc(NC(=O)c4cccc(Cl)c4Cl)c3)cnc12)c1ccccc1`, the IC50 was above 30000 nM.

`COc1ccc(C(=O)Nc2cccc(-c3cnc4c(NC(=O)c5ccccc5)cccn34)c2)cc1OC` displayed an IC50 of 9470 nM.

`O=C(Nc1cccc(-c2cnc3c(NC(=O)c4ccc(Br)cc4)nccn23)c1)c1ccc(F)c(Cl)c1` returned an IC50 of 490 nM.

Regarding `O=C(Nc1cccc(-c2cnc3c(NC(=O)c4cccc(OC(F)(F)F)c4)nccn23)c1)c1ccc(Cl)c(C(F)(F)F)c1`, inhibition was half-maximal at 1030 nM (IC50).

Molecule `Nc1nccn2c(-c3cccc(NC(=O)c4cccc(C(F)(F)F)c4)c3)cnc12` returned an IC50 of 2080 nM.

`O=C(Nc1cccc(-c2cnc3c(NC(=O)c4cc(Cl)c(F)c(Cl)c4)nccn23)c1)c1ccc(Cl)c(C(F)(F)F)c1` showed an IC50 above 30000 nM.

On to `O=C(Nc1cccc(-c2cnc3c(NC(=O)c4ccccc4)nccn23)c1)c1ccc(F)c(Cl)c1`, for which the midpoint of inhibition, the IC50, lay at 1160 nM.

The molecule `COc1ccc(C(=O)Nc2cccc(-c3cnc4c(N)nccn34)c2)cc1OC` yielded an IC50 of 3840 nM.

For the molecule `O=C(Nc1cccc(-c2cnc3c(NC(=O)c4ccccc4)cccn23)c1)c1ccc(F)c(Cl)c1`, inhibition was half-maximal at 8040 nM (IC50).

In turn, `O=C(Nc1ccc(C(F)(F)F)cc1)Nc1cccc(-c2cnc3c(NC(=O)c4ccccc4)cccn23)c1` yielded an IC50 of 3010 nM.

The molecule `O=C(Nc1cccc(-c2cnc3c(NC(=O)c4cc(Cl)c(F)c(Cl)c4)nccn23)c1)c1ccc(F)c(Cl)c1` had an IC50 of 1290 nM.

Regarding `O=C(Nc1cccc(-c2cnc3c(NC(=O)c4ccccc4)cccn23)c1)Nc1cccc(C(F)(F)F)c1`, the IC50 amounted to 4290 nM.

As to `O=C(Nc1cccc(-c2cnc3c(NC(=O)c4cc(F)cc(F)c4)nccn23)c1)c1ccc(F)c(Cl)c1`, 450 nM corresponded to half-maximal inhibition (IC50).

On to `Nc1nccn2c(-c3cccc(NC(=O)c4ccccc4)c3)cnc12`, for which the IC50 came out at 850 nM.

Consider `O=C(Nc1cccc(-c2cnc3c(NC(=O)c4ccccc4)cccn23)c1)c1cc(Cl)c(F)c(Cl)c1`, for which the IC50 is 7340 nM.

On to `O=C(Nc1cccc(-c2cnc3c(NC(=O)c4ccccc4)cccn23)c1)Nc1ccc(Cl)c(Cl)c1`, for which the IC50 is 4460 nM.

With `Nc1nccn2c(-c3cccc(NC(=O)c4cccc(Cl)c4Cl)c3)cnc12`, the IC50 turned out to be 640 nM.

As to `O=C(Nc1cccc(-c2cnc3c(NC(=O)c4ccc(C(F)(F)F)cc4)nccn23)c1)c1ccc(F)c(Cl)c1`, 560 nM corresponded to half-maximal inhibition (IC50).

On to `O=C(Nc1cccc(-c2cnc3c(NC(=O)c4ccccc4)cccn23)c1)c1ccc(Cl)c(C(F)(F)F)c1`, for which the IC50 was above 30000 nM.

On to `Nc1nccn2c(-c3cccc(NC(=O)c4ccc(F)c(Cl)c4)c3)cnc12`, for which the IC50 was 340 nM.

For `O=C(Nc1cccc(-c2cnc3c(NC(=O)c4cccc(C(F)(F)F)c4)nccn23)c1)c1ccc(Cl)c(C(F)(F)F)c1`, half-maximal inhibition (IC50) was put at 12700 nM.

With `O=C(Nc1cccc(-c2cnc3c(NC(=O)c4ccc(F)c(Cl)c4)nccn23)c1)c1ccc(F)c(Cl)c1`, the IC50 came to 890 nM.

Molecule `O=C(Nc1cccc(-c2cnc3c(NC(=O)c4ccccc4)cccn23)c1)c1ccccc1` displayed an IC50 above 30000 nM.

As to `Cc1ccc(C(=O)Nc2nccn3c(-c4cccc(NC(=O)c5ccc(Cl)c(C(F)(F)F)c5)c4)cnc23)cc1Cl`, the IC50 stood at 2790 nM.

`Nc1nccn2c(-c3cccc(NC(=O)c4ccc(Cl)c(Cl)c4)c3)cnc12`: the IC50 amounted to 1210 nM.

As for `O=C(Nc1cccc(-c2cnc3c(NC(=O)c4ccc(Cl)c(Cl)c4)nccn23)c1)c1ccc(F)c(Cl)c1`, it took 900 nM to reach half-maximal inhibition (IC50).

In the case of `O=C(Nc1cccc(-c2cnc3c(NC(=O)c4ccccc4)cccn23)c1)Nc1cc(C(F)(F)F)cc(C(F)(F)F)c1`, the IC50 was 2080 nM.

For `O=C(Nc1cccc(-c2cnc3c(NC(=O)c4ccccc4)cccn23)c1)c1cccc(OC(F)(F)F)c1`, the IC50 is above 30000 nM.

For the molecule `O=C(Nc1cccc(-c2cnc3c(NC(=O)c4cc(Cl)cc(Cl)c4)nccn23)c1)c1ccc(F)c(Cl)c1`, the IC50 was found to be 1150 nM.

The molecule `O=C(Nc1cccc(-c2cnc3c(NC(=O)c4cccc(C(F)(F)F)c4)nccn23)c1)c1ccc(F)c(Cl)c1` returned an IC50 of 1080 nM.

With `O=C(Nc1cccc(-c2cnc3c(NC(=O)c4ccccc4)cccn23)c1)Nc1cccc(Cl)c1Cl`, the IC50 was 15900 nM.

Regarding `Nc1nccn2c(-c3cccc(NC(=O)c4ccc(F)c(C(F)(F)F)c4)c3)cnc12`, the IC50 was 2130 nM.

Turning to `O=C(Nc1cccc(-c2cnc3c(NC(=O)c4ccccc4)cccn23)c1)c1cccc(C(F)(F)F)c1`, the IC50 was above 30000 nM.

`O=C(Nc1cccc(-c2cnc3c(NC(=O)c4ccc(Cl)c(C(F)(F)F)c4)nccn23)c1)c1ccc(Cl)c(C(F)(F)F)c1`: the IC50 turned out to be 2460 nM.

As to `Nc1nccn2c(-c3cccc(NC(=O)c4ccc(OC(F)(F)F)cc4)c3)cnc12`, it took 430 nM to reach half-maximal inhibition (IC50).

In the case of `Cc1ccc(C)c(C(=O)Nc2cccc(-c3cnc4c(NC(=O)c5ccccc5)cccn34)c2)c1`, the IC50 is above 30000 nM.

In turn, `O=C(Nc1cccc(-c2cnc3c(NC(=O)c4ccccc4)cccn23)c1)c1cc(F)cc(F)c1` gave an IC50 of 7940 nM.

Take `Nc1nccn2c(-c3cccc(NC(=O)c4cc(Cl)cc(Cl)c4)c3)cnc12`: the IC50 is 2940 nM.

For `Nc1nccn2c(-c3cccc(NC(=O)c4ccc(Br)cc4)c3)cnc12`, the IC50 was 750 nM.

As for `O=C(Nc1cccc(-c2cnc3c(NC(=O)c4cc(C(F)(F)F)cc(C(F)(F)F)c4)nccn23)c1)c1ccc(F)c(Cl)c1`, the IC50 is 1160 nM.

Turning to `Cc1cc(C)cc(C(=O)Nc2nccn3c(-c4cccc(NC(=O)c5ccc(Cl)c(C(F)(F)F)c5)c4)cnc23)c1`, the IC50 is 180 nM.

On to `Cc1ccc(C)c(C(=O)Nc2cccc(-c3cnc4c(N)nccn34)c2)c1`, for which it took 2730 nM to reach half-maximal inhibition (IC50).

`O=C(Nc1cccc(-c2cnc3c(NC(=O)c4cccc(Cl)c4Cl)nccn23)c1)c1ccc(F)c(Cl)c1` yielded an IC50 of 23300 nM.

`O=C(Nc1cccc(-c2cnc3c(NC(=O)c4ccc(OC(F)(F)F)cc4)nccn23)c1)c1ccc(F)c(Cl)c1`: the IC50 came out at 440 nM.

The molecule `O=C(Nc1cccc(-c2cnc3c(NC(=O)c4ccccc4)cccn23)c1)Nc1ccc(Cl)c(C(F)(F)F)c1` yielded an IC50 of 2320 nM.

Molecule `Cc1ccc(C(=O)Nc2nccn3c(-c4cccc(NC(=O)c5ccc(F)c(Cl)c5)c4)cnc23)cc1Cl` displayed an IC50 of 980 nM.

Regarding `O=C(Nc1cccc(-c2cnc3c(NC(=O)c4ccc(Br)cc4)nccn23)c1)c1ccc(Cl)c(C(F)(F)F)c1`, the IC50 was 1800 nM.

Consider `Nc1nccn2c(-c3cccc(NC(=O)c4cc(F)cc(F)c4)c3)cnc12`, for which the IC50 is 460 nM.

In the case of `Nc1nccn2c(-c3cccc(NC(=O)c4cc(C(F)(F)F)cc(C(F)(F)F)c4)c3)cnc12`, the IC50 amounted to 8320 nM.

The molecule `O=C(Nc1cccc(-c2cnc3c(NC(=O)c4ccc(OC(F)(F)F)cc4)nccn23)c1)c1ccc(Cl)c(C(F)(F)F)c1` displayed an IC50 of 1310 nM.

As to `O=C(Nc1cccc(-c2cnc3c(NC(=O)c4ccc(F)c(C(F)(F)F)c4)nccn23)c1)c1ccc(F)c(Cl)c1`, the IC50 came out at 1140 nM.

For the molecule `Nc1nccn2c(-c3cccc(NC(=O)c4cccc(OC(F)(F)F)c4)c3)cnc12`, half-maximal inhibition (IC50) was put at 13800 nM.

As to `O=C(Nc1cccc(-c2cnc3c(NC(=O)c4ccc(C(F)(F)F)cc4)nccn23)c1)c1ccc(Cl)c(C(F)(F)F)c1`, half-maximal inhibition (IC50) was put at 1600 nM.

`COc1cccc(C(=O)Nc2cccc(-c3cnc4c(N)nccn34)c2)c1C` had an IC50 of 10100 nM.

In the case of `O=C(Nc1cccc(-c2cnc3c(NC(=O)c4ccc(F)c(Cl)c4)nccn23)c1)c1ccc(Cl)c(C(F)(F)F)c1`, it took 2860 nM to reach half-maximal inhibition (IC50).

Molecule `Cc1cc(C)cc(C(=O)Nc2nccn3c(-c4cccc(NC(=O)c5ccc(F)c(Cl)c5)c4)cnc23)c1` had an IC50 of 1640 nM.
